Several values for one entry are separate records, joined by “and”; a condition that tells them apart may be missing. Identical values can stand only once.
What was measured:
MRGPRX4 [1] = target: T1, MRGPRX4 (Homo sapiens, UniProt Q96LA9); assay: Microscale thermophoresis binding to MRGPRX4; design: microscale thermophoresis response (binding isotherm), mean: unit not given here; details: for microscale thermophoresis response (binding isotherm), mean: mean of n=3, Fig 2-J
T1 construct: expressed in transfected cells
T1 sequence (Q96LA9 whole entry): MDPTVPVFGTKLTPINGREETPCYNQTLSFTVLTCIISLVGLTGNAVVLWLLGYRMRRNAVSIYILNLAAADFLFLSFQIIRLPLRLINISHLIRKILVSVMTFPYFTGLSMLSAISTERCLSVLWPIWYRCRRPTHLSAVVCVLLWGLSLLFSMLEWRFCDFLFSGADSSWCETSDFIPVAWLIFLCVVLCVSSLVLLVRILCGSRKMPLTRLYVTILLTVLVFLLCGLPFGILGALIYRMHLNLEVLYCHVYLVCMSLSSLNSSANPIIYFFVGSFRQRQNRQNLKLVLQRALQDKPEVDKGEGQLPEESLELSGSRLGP
Protocol: (§1) Binding isotherms for MRGPRA1, MRGPRX4, and MRGRPC11 towards various ligands were determined by microscale thermophoresis with the NanoTemper monolith NT.115 instrument ([Duhr and Braun, 2006]). Ligands were pre-incubated with 10 µM of the GFP-tagged receptor of interest for 5 min at room temperature in binding buffer (20 mM Tris and 150 mM NaCl at pH 8.8). Receptors were crudely purified as a membrane fraction from cells stably expressing the receptor ([Vasavda et al., 2017]). Haem metabolites were freshly dissolved in 0.1 M NaOH in dim light and then diluted into assay buffer. Lyophilized BAM8-22 was dissolved in binding buffer. The pH of each ligand was evaluated prior to incubation with a receptor. Samples were loaded into NT.115 Hydrophobic-Treated Capillaries from NanoTemper. Microscale thermophoretic experiments were executed using 20% LED power and 15% MST power. KDs were calculated using the law of mass action with data from three independent experiments. Binding between bilirubin and receptors was evaluated purely thermophoretically, whereas binding between BAM8-22 and MRGPRC11 was evaluated by T-Jump. Samples with dramatic deviations in initial fluorescence were excluded.

MRGPRX4 [2] = target: T1, MRGPRX4; assay: Ca2+ imaging and concentration-Ca2+ response (EC50) in HEK293 cells expressing MRGPRX4; type: cell-based; details: for Ca2+ response (concentration-response curve): MRGPRX4, triplicate wells (Fig 2I)
Protocol: All cultured cells were maintained in DMEM supplemented with 10% FBS and 1% Penicillin/Streptomycin at 37°C, 5% CO2. All data included were generated from cells tested for mycoplasma and found to be negative. Cells were imaged in calcium imaging buffer (CIB; 10 mM HEPES, 1.2 mM NaHCO3, 130 mM NaCl, 3 mM KCl, 2.5 mM CaCl2, 0.6 mM MgCl2, 20 mM glucose, and 20 mM sucrose at pH 7.4 and 290–300 mOsm). To monitor changes in intracellular [Ca^2+] ([Ca^2+]i), cells were loaded with either Fura 2-AM (HEK293 cells) or Fluo 4-AM (DRG neurons and mast cells) for 30 min in the dark at 37°C in CIB just prior to imaging. With Fura 2-AM, emission at 510 nm was monitored from excitation at both 340 nm and 380 nm. With Fluo 4-AM, emission at 520 nm was monitored from excitation at 488 nm. Cells were identified as responding if the intracellular [Ca^2+] rose by either 50% compared to baseline or 50% compared to the [Ca^2+]i change assayed during addition of 50 mM KCl (neurons only). Damaged, detached, high-baseline, and motion-activated cells were excluded from analysis.
In initial screens, HEK293 cells stably expressing the murine G-protein alpha-subunit Gα15, a unique Gα protein that non-selectively couples a large variety of GPCRs to phospholipase C ^30, were plated on poly-D-lysine-coated coverslips and transiently transfected with constructs encoding the MRGRPR of interest. 12–24 hr later, cells were loaded with the Fura 2-AM. Unless otherwise specified, compounds were perfused into the imaging chamber for approximately thirty seconds after a baseline period was established. Response was then monitored at 5 s intervals for an additional 60 s.
HEK293 cells stably expressing either MRGPRA1, MRGPRX4, and MRGRPC11 were seeded in poly-D-lysine-coated 96-well plates at 10,000 cells/well. Cells were loaded with Fura 2–AM, washed twice, and maintained in CIB. Haem metabolites were freshly dissolved in DMSO in dim light and then diluted into a buffer comprised of 20 mM Tris and 150 mM NaCl at pH 8.8. Potential changes in pH were evaluated prior to each experiment. EC50 values were determined from dose-responses performed in triplicate, repeated 2–4 times. To determine potential antagonism by QWF against bilirubin, cells were treated with varying doses of QWF for 1 min in CIB prior to application of agonist.
HEK293 stable cell lines expressing GFP-tagged MRGPRA3, MRGPRC11, MRGPRD, MRGPRX1, and MRGPRX2 were generated in previously described reports ([Liu et al., 2009]; [Liu et al., 2012]; [McNeil et al., 2015]). Briefly, plasmids containing the receptor of interest were transfected into HEK cells using Lipofectamine 3000. After 3 days, cells were then selected using 0.5 mg/mL G418. After 3 weeks, monoclonal colonies were established and each the highest expressing clones were identified. For this study, Mrgpra1 and MRGPRX4 were inserted into pEGFP-N1 and transfected into HEK293 cells. MRGPR-positive cells were selected using 0.5 mg/mL G418 for three weeks, after which GFP-positive cells were sorted by FACS and monoclonally expanded. Two lines expressing similar levels of MRGPRA1 and MRGPRX4, as measured by GFP fluorescence, were selected for study.

MRGPRA1 = target: T2, MRGPRA1 (Mus musculus, UniProt Q91WW5); assay: Microscale thermophoresis binding to MRGPRA1; design: Transformed binding isotherm (mean of three experiments): unit not given here; details: for Transformed binding isotherm (mean of three experiments): MRGPRA1 (Fig 2E)
T2 construct: expressed in transfected cells
T2 sequence (Q91WW5 1-304): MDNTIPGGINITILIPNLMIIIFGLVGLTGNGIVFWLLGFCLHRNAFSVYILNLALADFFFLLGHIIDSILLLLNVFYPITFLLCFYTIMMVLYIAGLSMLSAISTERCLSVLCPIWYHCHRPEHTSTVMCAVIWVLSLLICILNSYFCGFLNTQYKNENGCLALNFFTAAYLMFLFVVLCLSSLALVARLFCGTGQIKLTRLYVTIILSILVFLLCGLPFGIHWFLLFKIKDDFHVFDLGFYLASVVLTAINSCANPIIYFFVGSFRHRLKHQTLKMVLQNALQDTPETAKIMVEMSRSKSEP
Protocol: as §1

SMILES: C=CC1=C(C)/C(=C/c2[nH]c(Cc3[nH]c(/C=C4\NC(=O)C(C)=C4C=C)c(C)c3CCC(=O)NCCS(=O)(=O)O)c(CCC(=O)NCCS(=O)(=O)O)c2C)NC1=O [conjugated bilirubin, bilirubin ditaurate]
- microscale thermophoresis response (binding isotherm), mean (MRGPRX4 [1]; [Ligand] 3.05e-8 M): 14.6332
- microscale thermophoresis response (binding isotherm), mean (MRGPRX4 [1]; [Ligand] 6.1e-8 M): -0.3949
- microscale thermophoresis response (binding isotherm), mean (MRGPRX4 [1]; [Ligand] 1.221e-7 M): -3.186
- microscale thermophoresis response (binding isotherm), mean (MRGPRX4 [1]; [Ligand] 2.441e-7 M): 10.7277
- microscale thermophoresis response (binding isotherm), mean (MRGPRX4 [1]; [Ligand] 4.883e-7 M): 1.18
- microscale thermophoresis response (binding isotherm), mean (MRGPRX4 [1]; [Ligand] 9.766e-7 M): 3.799
- microscale thermophoresis response (binding isotherm), mean (MRGPRX4 [1]; [Ligand] 1.9531e-6 M): 8.125
- microscale thermophoresis response (binding isotherm), mean (MRGPRX4 [1]; [Ligand] 3.9063e-6 M): 1.993
- microscale thermophoresis response (binding isotherm), mean (MRGPRX4 [1]; [Ligand] 7.8125e-6 M): 2.933
- microscale thermophoresis response (binding isotherm), mean (MRGPRX4 [1]; [Ligand] 1.5625e-5 M): -0.662
- microscale thermophoresis response (binding isotherm), mean (MRGPRX4 [1]; [Ligand] 3.125e-5 M): 8.64
- microscale thermophoresis response (binding isotherm), mean (MRGPRX4 [1]; [Ligand] 6.25e-5 M): 18.6992
- microscale thermophoresis response (binding isotherm), mean (MRGPRX4 [1]; [Ligand] 0.000125 M): 39.4499
- microscale thermophoresis response (binding isotherm), mean (MRGPRX4 [1]; [Ligand] 0.00025 M): 46.5687
- microscale thermophoresis response (binding isotherm), mean (MRGPRX4 [1]; [Ligand] 0.0005 M): 49.0399
- microscale thermophoresis response (binding isotherm), mean (MRGPRX4 [1]; [Ligand] 0.001 M): 52.0554
- Binding to MRGPRX4 (MRGPRX4 [1]; microscale thermophoresis): lower affinity than unconjugated bilirubin
- Calcium response / activation of MRGPRX4-expressing cells (MRGPRX4 [2]): activated MRGPRX4
- Ca2+ response (concentration-response curve) (MRGPRX4 [2]; [Ligand] 3.90625e-6 M): 1.434 and 1.4137 and 1.361
- Ca2+ response (concentration-response curve) (MRGPRX4 [2]; [Ligand] 7.8125e-6 M): 1.454 and 1.384 and 1.354
- Ca2+ response (concentration-response curve) (MRGPRX4 [2]; [Ligand] 1.5625e-5 M): 1.439 and 1.34 and 1.332
- Ca2+ response (concentration-response curve) (MRGPRX4 [2]; [Ligand] 3.125e-5 M): 1.623 and 1.449 and 1.378
- Ca2+ response (concentration-response curve) (MRGPRX4 [2]; [Ligand] 6.25e-5 M): 1.761 and 1.61 and 1.52
- Ca2+ response (concentration-response curve) (MRGPRX4 [2]; [Ligand] 0.000125 M): 1.756 and 1.629 and 1.666
- Ca2+ response (concentration-response curve) (MRGPRX4 [2]; [Ligand] 0.00025 M): 1.735 and 1.736 and 1.6528
- Ca2+ response (concentration-response curve) (MRGPRX4 [2]; [Ligand] 0.0005 M): 1.775 and 1.779 and 1.74
- Transformed binding isotherm (mean of three experiments) (MRGPRA1; [Ligand] 1.221e-7 M): 8.864
- Transformed binding isotherm (mean of three experiments) (MRGPRA1; [Ligand] 2.441e-7 M): 12.0246
- Transformed binding isotherm (mean of three experiments) (MRGPRA1; [Ligand] 4.883e-7 M): -13.1442
- Transformed binding isotherm (mean of three experiments) (MRGPRA1; [Ligand] 9.766e-7 M): 10.2399
- Transformed binding isotherm (mean of three experiments) (MRGPRA1; [Ligand] 1.9531e-6 M): -8.006
- Transformed binding isotherm (mean of three experiments) (MRGPRA1; [Ligand] 3.9063e-6 M): -10.5584
- Transformed binding isotherm (mean of three experiments) (MRGPRA1; [Ligand] 7.8125e-6 M): -9.562
- Transformed binding isotherm (mean of three experiments) (MRGPRA1; [Ligand] 1.5625e-5 M): -5.789
- Transformed binding isotherm (mean of three experiments) (MRGPRA1; [Ligand] 3.125e-5 M): -4.24
- Transformed binding isotherm (mean of three experiments) (MRGPRA1; [Ligand] 6.25e-5 M): 37.7812
- Transformed binding isotherm (mean of three experiments) (MRGPRA1; [Ligand] 0.000125 M): 5.5559
- Transformed binding isotherm (mean of three experiments) (MRGPRA1; [Ligand] 0.00025 M): 6.134
- Transformed binding isotherm (mean of three experiments) (MRGPRA1; [Ligand] 0.0005 M): 25.273
- Transformed binding isotherm (mean of three experiments) (MRGPRA1; [Ligand] 0.001 M): 43.2348
- Binding to MRGPRA1 (MRGPRA1; microscale thermophoresis): lower affinity than unconjugated bilirubin

Reference: paper PMC6368403, “Identification of a bilirubin receptor that may mediate a component of cholestatic itch” (eLife, 2019)
